From patent publication US20220177587A1, “METHODS AND USES OF VARIANT CD80 FUSION PROTEINS AND RELATED CONSTRUCTS” (Alpine Immune Sciences, Inc., priority 2018, published 2022)

Tests used:
[1] = test system: primary human pan T cells; test: Cytokine production following PD-L1-dependent costimulation; assay type: cell-based; settings: mitomycin-c treated K562/OKT3/PDL1 aAPC; FIG. 6
MC38 hPD-L1 tumor cells = test: MC38 hPD-L1 tumor model in C57BL/6 mice; assay type: in vivo, mouse
Method: Mouse MC38 tumor cells were stably transfected with human PD-L1 (MC38 hPD-L1) and implanted subcutaneously into C57BU6 mice. […] Tumor volume was tracked over time.
70 female C57CL/6 mice, containing similar tumor volumes of approximately 50-51 mm^3, following implantation of MC38 hPD-L1 tumor cells, were staged and divided into 5 treatment groups containing 14 mice each. […] Tumor volumes were measured on days 7, 10, and 12. On day 13, 5 animals were sacrificed for analysis as described in the sections below. Tumor measurements resumed for the remaining 9 mice for each group on days 17, 20 and 27. On days 26, 28, and 31, the animals in Group 1 (Fc isotype control) received an intratumoral injection of 100 μg E35D/M47L CD80-IgV-Fc.
95 female C57BU6 mice were implanted with MC38 hPD-L1 tumor cells. The tumors were staged on Day 7, and 77 mice with similar tumor volumes of approximately 60 mm^3 were divided into 7 treatment groups containing 11 mice each.
On day 49, tumor-free mice, from Groups 3, 4, 6, and 7, and 2 naïve C57CL/6 mice were re-challenged with an additional injection of hPD-L1 MC38 cells. Tumor volumes were measured on days 56, 59, and 63. The results are depicted in FIG. 13. […] At day 59, 8/8 mice from Group 3, 1/2 mice from Group 4, 1/1 mouse from Group 6, and 2/2 mice from Group 7 were tumor-free, and by day 63, all mice in Group 3, Group 4, Group 6, and Group 7 were tumor-free.
75 animals were staged into 3 treatment groups 7 days after implantation with hPD-L1 MC38 tumor cells. […] Tumor volumes were measured every 3-4 days, from Day 11 until Day 35. 3 days after the 1st dose, 2nd dose and 3rd dose, 4 mice from each group were sacrificed for tumor and LN analyses, leaving 13 mice for tumor volume measurements throughout the study period.

Pan T cells = test: Primary T cell stimulation assay with K562/OKT3 +/- PD-L1 (IL-2, IFN-gamma, proliferation); assay type: cell-based, human; design: IL-2 release, K562/OKT3 (No PD-L1), CD80-IgV Fc (effector), 1 nM / IL-2 release, K562/OKT3 (No PD-L1), CD80-IgV Fc (effector), 10 nM / IL-2 release, K562/OKT3 (No PD-L1), CD80-IgV Fc (effector), 100 nM / IL-2 release, K562/OKT3/PD-L1, CD80-IgV Fc (inert), 1 nM / IL-2 release, K562/OKT3/PD-L1, CD80-IgV Fc (inert), 10 nM / IL-2 release, K562/OKT3/PD-L1, CD80-IgV Fc (inert), 100 nM: unit not given here; settings: 72 hr; for IL-2 release, K562/OKT3 (No PD-L1), CD80-IgV Fc (effector), 1 nM / IL-2 release, K562/OKT3 (No PD-L1), CD80-IgV Fc (effector), 10 nM / IL-2 release, K562/OKT3 (No PD-L1), CD80-IgV Fc (effector), 100 nM: Pan T cells + K562/OKT3 (no PD-L1), effector Fc format (controls as labelled)
Method: IFN-gamma, IL-2 and proliferation were determined after 72 hr. incubation.

[2] = test system: huPD-L1 transduced MC38 tumor cells; test: In vitro cytotoxicity to huPD-L1 transduced MC38 tumor cells; assay type: cell-based, mouse; settings: 100 nM or 10 nM; 72 hours; human pan T cells 1:5; FIG. 17
Method: This Example describes the assessment of in vitro cytotoxicity of huPD-L1 transduced MC38 tumor cells. MC38 tumor cells, non-transduced or transduced with huPD-L1, were treated with Mitomycin-C and plated with human pan T cells labelled with CFSE at a 1:5 ratio. […] As a control, an exemplary anti-PD-1 antibody nivolumab or an Fc (inert) only control also were assessed. Cells were then harvested and stained with 7-AAD viability dye. After acquiring samples on a flow cytometer, the percentage of dead cells was calculated using Flowjo analysis by gating on 7-AAD+ cells in the CFSE− gate.

[3] = 3 injections of 100 μg on Days 8, 10 and 12
[4] = re-challenged on day 49 with hPD-L1 MC38 cells

## durvalumab [reference compound]
[1]
  IL-2 secretion in culture supernatants: IL-2 production was not observed
MC38 hPD-L1 tumor cells; 100 μg on days 7, 9 and 11, 11 mice per group
  mice with no detectable tumors (tumor-free) upon completion of the study: 2 mice
MC38 hPD-L1 tumor cells; [3]
  tumor-free mice at day 35: 3/13
  tumor-free mice on Day 18: 3/13
MC38 hPD-L1 tumor cells; [4]
  tumor-free mice after re-challenge, day 59: 2/2
  tumor-free mice after re-challenge, day 63: tumor-free

## WT CD80 ECD-Fc (effector)
Pan T cells; 1 nM
  IL-2 release, K562/OKT3 (No PD-L1), CD80-IgV Fc (effector), 1 nM: 11434
Pan T cells; 10 nM
  IL-2 release, K562/OKT3 (No PD-L1), CD80-IgV Fc (effector), 10 nM: 20185
Pan T cells; 100 nM
  IL-2 release, K562/OKT3 (No PD-L1), CD80-IgV Fc (effector), 100 nM: 23118
Pan T cells; Pan T cells + K562/OKT3/PD-L1, inert Fc format (controls as labelled), 1 nM
  IL-2 release, K562/OKT3/PD-L1, CD80-IgV Fc (inert), 1 nM: 507
Pan T cells; Pan T cells + K562/OKT3/PD-L1, inert Fc format (controls as labelled), 10 nM
  IL-2 release, K562/OKT3/PD-L1, CD80-IgV Fc (inert), 10 nM: 3114
Pan T cells; Pan T cells + K562/OKT3/PD-L1, inert Fc format (controls as labelled), 100 nM
  IL-2 release, K562/OKT3/PD-L1, CD80-IgV Fc (inert), 100 nM: 8393

## WT CD80 IgV-Fc (effector)
Pan T cells; 1 nM
  IL-2 release, K562/OKT3 (No PD-L1), CD80-IgV Fc (effector), 1 nM: 7167
Pan T cells; 10 nM
  IL-2 release, K562/OKT3 (No PD-L1), CD80-IgV Fc (effector), 10 nM: 7123
Pan T cells; 100 nM
  IL-2 release, K562/OKT3 (No PD-L1), CD80-IgV Fc (effector), 100 nM: 6203

## nivolumab [reference compound]
[2]
  cytotoxicity (percentage of dead 7-AAD+ tumor cells): cytotoxic activity was not observed
